# Data as given in ChEMBL document CHEMBL1201862, “PubChem BioAssay data set” (2004).
# Active and inactive are the calls of the source.
# Assays:
# [1] = A cytotoxicity screen of small molecule inhibitors of the PhoP region in Salmonella typhi identified in the primary screen. [Related pubchem assays: 1850, 1864, 1985 ]; assay type: functional
# Cytochrome P450 3A4 = Cytochrome P450 3A4 (Homo sapiens, UniProt P08684); settings: Potency;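 further: confirmatory qHTS run detecting inhibitors and substrates of CYP3A4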
# Cytochrome P450 3A4, sequence (P08684 whole entry): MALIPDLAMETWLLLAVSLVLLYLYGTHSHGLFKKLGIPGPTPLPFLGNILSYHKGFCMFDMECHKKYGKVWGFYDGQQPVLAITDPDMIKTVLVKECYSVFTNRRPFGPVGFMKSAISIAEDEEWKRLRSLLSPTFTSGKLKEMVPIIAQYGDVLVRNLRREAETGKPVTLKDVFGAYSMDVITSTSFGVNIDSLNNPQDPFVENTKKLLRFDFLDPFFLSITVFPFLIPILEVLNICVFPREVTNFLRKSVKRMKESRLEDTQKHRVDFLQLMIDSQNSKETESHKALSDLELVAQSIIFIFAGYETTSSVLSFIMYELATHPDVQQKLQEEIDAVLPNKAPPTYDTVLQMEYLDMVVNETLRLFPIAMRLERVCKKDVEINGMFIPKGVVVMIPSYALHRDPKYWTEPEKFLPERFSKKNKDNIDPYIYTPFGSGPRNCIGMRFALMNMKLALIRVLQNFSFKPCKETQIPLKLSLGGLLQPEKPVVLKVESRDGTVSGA
# Troponin, cardiac muscle = Troponin, cardiac muscle (Homo sapiens, UniProt P19429+P45379+P63316); experiment: Fluorescence-based biochemical high throughput dose response assay for activators of the calcium sensitivity of cardiac Regulated Thin Filaments (RTF). [Related pubchem assays (depositor defined):AID493008, AID493018, AID504382, AID504383]; assay type: protein-complex assay
# [2] = molecular target: T1, Carboxy-terminal domain RNA polymerase II polypeptide A small phosphatase 1 (Homo sapiens, UniProt Q9GZU7); experiment: inhibitors of CTDSP1, concentration-response testing, biochemical assay, absorbance-based, actives from ultra-high-throughput screening (AID 540297); assay type: functional
# T1 sequence (Q9GZU7 whole entry): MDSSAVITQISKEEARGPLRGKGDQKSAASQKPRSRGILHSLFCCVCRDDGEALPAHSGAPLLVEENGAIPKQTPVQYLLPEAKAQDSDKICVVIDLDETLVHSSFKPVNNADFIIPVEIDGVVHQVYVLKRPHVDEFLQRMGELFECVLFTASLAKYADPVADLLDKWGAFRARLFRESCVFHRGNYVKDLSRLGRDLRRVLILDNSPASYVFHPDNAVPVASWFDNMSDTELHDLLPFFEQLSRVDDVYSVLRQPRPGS
# [3] = molecular target: T2, Apoptotic protease-activating factor 1 (Homo sapiens, UniProt O14727); assay type: functional
# T2 sequence (O14727 whole entry): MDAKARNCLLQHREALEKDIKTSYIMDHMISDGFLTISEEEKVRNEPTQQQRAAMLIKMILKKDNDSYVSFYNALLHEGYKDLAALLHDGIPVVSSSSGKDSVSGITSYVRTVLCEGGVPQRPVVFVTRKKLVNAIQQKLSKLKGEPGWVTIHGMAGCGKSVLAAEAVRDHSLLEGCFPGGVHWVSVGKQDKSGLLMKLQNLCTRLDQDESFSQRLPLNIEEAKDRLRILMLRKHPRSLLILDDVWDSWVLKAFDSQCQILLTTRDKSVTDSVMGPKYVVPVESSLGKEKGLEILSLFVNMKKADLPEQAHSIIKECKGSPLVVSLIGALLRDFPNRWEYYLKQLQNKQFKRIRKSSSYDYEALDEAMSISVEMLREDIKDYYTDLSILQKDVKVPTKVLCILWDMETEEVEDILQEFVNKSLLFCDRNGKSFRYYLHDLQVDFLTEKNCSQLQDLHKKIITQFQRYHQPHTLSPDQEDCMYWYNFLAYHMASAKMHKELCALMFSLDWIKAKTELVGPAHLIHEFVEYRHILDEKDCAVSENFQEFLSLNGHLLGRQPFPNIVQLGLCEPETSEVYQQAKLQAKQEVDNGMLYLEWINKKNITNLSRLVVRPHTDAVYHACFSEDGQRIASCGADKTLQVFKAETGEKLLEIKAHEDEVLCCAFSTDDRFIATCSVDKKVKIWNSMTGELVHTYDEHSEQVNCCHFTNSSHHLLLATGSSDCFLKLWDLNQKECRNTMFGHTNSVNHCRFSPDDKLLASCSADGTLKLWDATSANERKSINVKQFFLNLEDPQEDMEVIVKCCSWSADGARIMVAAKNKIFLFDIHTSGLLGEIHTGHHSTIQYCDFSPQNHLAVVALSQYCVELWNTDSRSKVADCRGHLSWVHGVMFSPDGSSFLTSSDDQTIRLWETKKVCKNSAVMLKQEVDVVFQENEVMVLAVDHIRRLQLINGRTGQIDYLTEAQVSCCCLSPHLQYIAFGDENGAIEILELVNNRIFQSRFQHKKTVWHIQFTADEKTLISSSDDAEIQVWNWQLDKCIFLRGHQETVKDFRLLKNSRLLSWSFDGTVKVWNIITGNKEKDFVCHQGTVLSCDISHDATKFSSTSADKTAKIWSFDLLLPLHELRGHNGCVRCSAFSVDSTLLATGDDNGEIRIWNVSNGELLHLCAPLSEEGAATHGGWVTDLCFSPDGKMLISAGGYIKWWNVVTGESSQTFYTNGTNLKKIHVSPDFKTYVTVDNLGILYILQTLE
# [4] = molecular target: T3, Zinc finger protein mex-5 (Caenorhabditis elegans, UniProt Q9XUB2); experiment: MEX-5/TCR-2 RNA interaction inhibitors, dose response, biochemical, C. elegans, fluorescence polarization (AID 1960)
# T3 sequence (Q9XUB2 whole entry): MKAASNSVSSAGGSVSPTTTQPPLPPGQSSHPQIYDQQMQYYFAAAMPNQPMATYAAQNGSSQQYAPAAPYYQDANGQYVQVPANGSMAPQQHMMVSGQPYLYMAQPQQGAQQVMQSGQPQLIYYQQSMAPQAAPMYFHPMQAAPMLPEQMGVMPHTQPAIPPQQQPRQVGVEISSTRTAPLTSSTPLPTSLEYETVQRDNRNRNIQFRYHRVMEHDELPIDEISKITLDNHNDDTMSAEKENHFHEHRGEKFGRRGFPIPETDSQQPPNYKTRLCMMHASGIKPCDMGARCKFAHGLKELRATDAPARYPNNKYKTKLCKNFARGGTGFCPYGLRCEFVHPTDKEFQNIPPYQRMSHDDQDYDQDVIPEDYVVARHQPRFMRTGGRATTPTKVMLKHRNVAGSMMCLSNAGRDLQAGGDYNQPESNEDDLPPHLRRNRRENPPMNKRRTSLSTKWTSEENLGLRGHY
# [5] = molecular target: T4, RNA-binding protein pos-1 (Caenorhabditis elegans, UniProt G5EF15); experiment: inhibitors of POS-1/mex-3 RNA binding, dose response, biochemical, fluorescence polarization (AID 1964);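 further: purified POS-1 fused to maltose binding protein made in E. coli; potency of compounds blocking POS-1 binding to fluorescent RNA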
# T4 sequence (G5EF15 whole entry): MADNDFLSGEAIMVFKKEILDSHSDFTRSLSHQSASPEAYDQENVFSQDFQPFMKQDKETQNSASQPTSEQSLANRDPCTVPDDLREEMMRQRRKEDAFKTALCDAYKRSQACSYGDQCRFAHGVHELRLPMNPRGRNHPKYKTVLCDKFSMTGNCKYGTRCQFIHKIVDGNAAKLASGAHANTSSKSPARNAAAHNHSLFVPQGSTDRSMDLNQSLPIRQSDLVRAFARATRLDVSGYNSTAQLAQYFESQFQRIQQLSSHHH
# INS1 = experiment: beta cell apoptosis inhibitors, cytokine rescue, dose response, luminescence, retest (AID 449756); assay type: functional, cell-based; settings: Rattus norvegicus;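 further: cell death triggered by IL-1 beta plus TNF-alpha plus IFN-gamma mixture; protective hits raise ATP signal compared with cytokine alone wells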
# [6] = HEp-2 cell cytotoxicity, dose response, cytotoxicity control for RSV inhibitor project, HTS (AID 2410); assay type: functional; settings: human respiratory syncytial virus
# cells [7] = experiment: cells
# [8] = inhibitors of firefly luciferase expression or activity, dose response, H4 neuroglioma cells, luminescence (AID 1990); assay type: functional, cell-based
# Nonstructural protein 1 = Nonstructural protein 1 (Influenza A virus, UniProt Q194T2); assay type: functional, Influenza A virus (A/California/07/2009(H1N1))
# Nonstructural protein 1, sequence (Q194T2 whole entry): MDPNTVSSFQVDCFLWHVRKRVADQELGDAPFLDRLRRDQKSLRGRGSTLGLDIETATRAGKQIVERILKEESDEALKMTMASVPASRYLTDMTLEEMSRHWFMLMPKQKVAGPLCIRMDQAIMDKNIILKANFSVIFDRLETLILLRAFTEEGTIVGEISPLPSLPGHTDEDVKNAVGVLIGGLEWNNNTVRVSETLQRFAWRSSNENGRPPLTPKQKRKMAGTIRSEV
# [9] = Luminescence Cell-Based Dose Response HTS to Identify Inhibitors of 5'UTR Stem-Loop Driven Prion Protein mRNA Translation in H4 Neuroglioblastoma Cells. [Related pubchem assays: 1827 (Project Summary), 1813 (Primary HTS)]; assay type: functional
# [10] = inhibitors of intracellular T. cruzi replication, confirmation, NIH3T3 host cells, beta-gal luminescence (AID 2044); assay type: functional, cell-based;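 further: intracellular parasites grown in NIH/3T3 mouse fibroblasts as host cells; luminescent beta-galactosidase reporter signal from transgenic T. cruzi replicating inside host cells; inhibitors lower the luminescence signal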
# [11] = inhibitors of SNCA 5'UTR-driven reporter translation, confirmation, H4 neuroglioma cells, luminescence (AID 1988); assay type: functional, cell-based
# [12] = cytotoxicity toward NIH3T3 fibroblasts, dose response, counter-screen, cell-based, ATP luminescence, mouse fibroblasts (AID 2010); assay type: functional;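 further: cells exposed to compound for about 90 hours before reading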
# [13] = HepG2 cell cytotoxicity, dose response, cytotoxicity control, cherry-picked samples (AID 1159577); assay type: functional, cell-based
# [14] = P. falciparum Dd2 growth inhibitors, dose response, SYBR Green, cherry-picked samples (AID 1159567); assay type: functional, cell-based
# [15] = microbe, parasite or virus in culture; assay type: functional; settings: Mycobacterium tuberculosis
# [16] = molecular target: Induced myeloid leukemia cell differentiation protein Mcl-1 (Homo sapiens, UniProt Q07820); assay type: functional
# Induced myeloid leukemia cell differentiation protein Mcl-1, sequence (Q07820 whole entry): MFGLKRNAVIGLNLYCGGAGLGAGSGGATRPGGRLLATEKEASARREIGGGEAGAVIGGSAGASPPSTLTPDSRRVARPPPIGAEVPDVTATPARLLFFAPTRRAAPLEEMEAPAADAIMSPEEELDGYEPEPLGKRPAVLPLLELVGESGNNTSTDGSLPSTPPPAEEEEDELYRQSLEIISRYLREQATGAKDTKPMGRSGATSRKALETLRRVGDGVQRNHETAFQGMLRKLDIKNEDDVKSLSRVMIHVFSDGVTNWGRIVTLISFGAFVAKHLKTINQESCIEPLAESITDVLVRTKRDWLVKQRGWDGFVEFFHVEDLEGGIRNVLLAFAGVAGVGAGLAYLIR
# [17] = molecular target: T5, DNA repair protein RAD52 homolog (Homo sapiens, UniProt P43351); assay type: functional, biochemical
# T5 sequence (P43351 whole entry): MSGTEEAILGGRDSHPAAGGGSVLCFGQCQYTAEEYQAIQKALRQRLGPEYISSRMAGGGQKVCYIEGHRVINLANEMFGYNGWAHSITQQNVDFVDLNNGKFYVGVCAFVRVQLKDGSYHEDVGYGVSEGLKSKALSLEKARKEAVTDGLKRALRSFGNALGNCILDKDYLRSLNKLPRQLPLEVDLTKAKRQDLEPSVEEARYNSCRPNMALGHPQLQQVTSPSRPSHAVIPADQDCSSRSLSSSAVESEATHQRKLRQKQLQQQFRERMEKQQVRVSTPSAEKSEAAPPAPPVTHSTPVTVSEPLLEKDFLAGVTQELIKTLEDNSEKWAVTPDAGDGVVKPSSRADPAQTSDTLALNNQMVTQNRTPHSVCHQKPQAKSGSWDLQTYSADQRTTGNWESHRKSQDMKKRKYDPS
# Large T antigen = Large T antigen (Simian virus 40, UniProt P03070); assay type: functional, Betapolyomavirus macacae;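 further: Confirmatory-stage PubChem screen for compounds that inhibit SV40 T antigen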
# Large T antigen, sequence (P03070 whole entry): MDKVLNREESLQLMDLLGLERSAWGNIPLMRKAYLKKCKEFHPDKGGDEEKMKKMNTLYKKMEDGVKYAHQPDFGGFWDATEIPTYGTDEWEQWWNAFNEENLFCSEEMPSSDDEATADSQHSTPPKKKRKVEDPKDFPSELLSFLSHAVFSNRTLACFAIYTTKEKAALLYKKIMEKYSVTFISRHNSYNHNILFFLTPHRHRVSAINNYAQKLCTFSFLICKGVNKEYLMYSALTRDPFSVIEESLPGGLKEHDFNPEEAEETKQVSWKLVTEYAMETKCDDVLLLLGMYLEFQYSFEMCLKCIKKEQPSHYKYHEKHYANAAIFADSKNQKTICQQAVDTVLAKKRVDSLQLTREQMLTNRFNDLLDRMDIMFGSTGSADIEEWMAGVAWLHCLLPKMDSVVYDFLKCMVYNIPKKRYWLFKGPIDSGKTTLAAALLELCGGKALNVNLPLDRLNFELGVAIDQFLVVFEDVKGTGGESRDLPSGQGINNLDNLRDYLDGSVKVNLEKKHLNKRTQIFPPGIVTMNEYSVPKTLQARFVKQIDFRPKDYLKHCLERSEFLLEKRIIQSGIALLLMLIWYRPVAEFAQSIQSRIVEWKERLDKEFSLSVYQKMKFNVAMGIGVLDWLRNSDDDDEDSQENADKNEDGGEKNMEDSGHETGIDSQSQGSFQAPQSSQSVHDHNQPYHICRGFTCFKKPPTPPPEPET
# [18] = growth suppression of PTEN-null colon cells, dose response, cell-based, HCT116 PTEN knockout (AID 1047); assay type: functional;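 further: HCT116 colon tumor cells with PTEN knocked out; cells exposed to compound for 60 hours before readout; potency for loss of cell viability measured by luminescence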
# [19] = Vero E6 cell cytotoxicity, dose response, cytotoxicity control for non-replicating M. tuberculosis project, secondary assay (AID 492998); assay type: functional, VeroE6; settings: Vero C1008
# [20] = growth suppression of beta-catenin-knockout colon cells, dose response, cell-based, HCT116, human colon tumor (AID 1045); assay type: functional;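 further: HCT116 colon tumor cells with beta catenin knocked out; cells exposed to compound for 60 hours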
# [21] = THP-1 cell cytotoxicity, dose response, cytotoxicity control for non-replicating M. tuberculosis project (AID 489025); assay type: functional
# [22] = Luminescence Cell-Based Dose Retest to Confirm Inhibitors of Cancer Stem Cells. [Related pubchem assays (depositor defined):AID2717, AID2721]; assay type: functional; settings: Homo sapiens
# cells [23] = assay type: functional
# [24] = HepG2 cell cytotoxicity, dose response, cytotoxicity control for non-replicating M. tuberculosis project (AID 489018); assay type: functional; settings: Mycobacterium tuberculosis
smiles,measurement,setting,value
COc1cc(CNCCCN2CCOCC2)c(Br)cc1OCC(=O)Nc1ccccc1C,EC50,[1],> 50 µM (active)
N#CC(Cl)Cl,AC50,Cytochrome P450 3A4,31.6 µM (inconclusive)
Cc1ccc(NC(=O)COc2ccc(/C=N/NC(=O)CSCc3ccccc3)cc2)cc1,EC50,"Troponin, cardiac muscle",> 71.5 µM (inactive)
same,IC50,[2],9.82 µM (active)
CC(C)CCC(C)N/C=C1/C(=O)N(Cc2ccccc2)C(=O)c2ccccc21 (stereo unspecified),IC50,[3],7.34 µM (active)
COc1ccc(-c2oc3ccccc3c(=O)c2O)cc1,AC50,Cytochrome P450 3A4,3.98 µM (inconclusive)
Cc1ccc(/C=C2\Oc3c(ccc(O)c3CN3CCN(CCO)CC3)C2=O)cc1,EC50,[4],73.9 µM (active)
same,EC50,"Troponin, cardiac muscle",19.5 µM (inactive)
same,EC50,[5],36 µM (active)
CCCOc1cc(NCc2ccccc2)c2ncn(C(C)C)c2c1,AC50,INS1,8.46 µM (active)
same,IC50,[3],5.67 µM (active)
COC(=O)C1=C(C)N(Cc2ccco2)C(=O)N[C@H]1c1ccc(Br)cc1,CC50,[6],42.9 µM (active)
same,EC50,[1],> 50 µM (active)
same,IC50,cells [7],3.12 µM (active)
CCCCCCC1=Cc2cc(OC)c(OC)cc2C(CC(=O)/C=C/OC)O1 (stereo unspecified),AC50,Cytochrome P450 3A4,5.01 µM (inconclusive)
COCc1cc(CN2CCCC2)c(O)c2ncccc12,EC50,[8],11.4 µM (active)
same,IC50,Nonstructural protein 1,2.31 µM (active)
same,EC50,[9],6.21 µM (active)
same,EC50,[10],3.07 µM (active)
same,EC50,[11],8.4 µM (active)
same,EC50,[12],4.17 µM (active)
C[C@@H]1CN([C@@H](C)CO)C(=O)Cc2cc(NC(=O)Nc3ccccc3)ccc2O[C@H]1CN(C)Cc1ccc(-c2ccccc2)cc1,AC50,[13],18.5 µM (active)
same,AC50,[14],1.87 µM (active)
c1cc2c3c(cccc3c1)NC1(CCC3(CC1)Nc1cccc4cccc(c14)N3)N2,CC50,[15],20 µM (active)
same,IC50,[3],7.06 µM (active)
CCOC(=O)N1CCC(=NNc2ccnc3cc(Cl)ccc23)CC1,EC50,[1],> 50 µM (active)
Oc1ccc(N=Nc2cccc(Cl)c2)cc1/C=N/c1ccc(N2CCOCC2)cc1,IC50,[16],5.14 µM (not active)
CCOc1ccc(NCc2cccn2-c2nnc(N3CCC(C(=O)NCCCN4CCCCC4C)CC3)s2)cc1 (stereo unspecified),AC50,[17],19.6 µM (active)
same,IC50,Large T antigen,19.5 µM (active)
O=[N+]([O-])c1cccc(NNS(=O)(=O)c2ccccc2F)c1,EC50,[1],> 50 µM (active)
COc1cc(CNC(C)(C)CO)cc(Br)c1OCc1ccc(Cl)cc1Cl,EC50,[18],7.38 µM (active)
same,CC50,[19],13.8 µM (active)
same,EC50,[20],7.94 µM (active)
same,AC50,[17],18.5 µM (active)
same,CC50,[21],19.4 µM (active)
same,AC50,[22],5.33 µM (active)
same,IC50,cells [23],16.7 µM (active)
same,CC50,[24],12.5 µM (active)
Cc1sc(NC(=O)c2sc3nc4c(C)cccc4cc3c2N)c(C#N)c1C,IC50,[16],1.44 µM (active)
O=C(Nc1ccc(Cl)c(Cl)c1)Nc1ccc([N+](=O)[O-])cn1,EC50,"Troponin, cardiac muscle",> 71.5 µM (inactive)
CC1CCN(C2=C(NS(=O)(=O)c3ccccc3)C(=O)c3ccccc3C2=O)CC1,IC50,Nonstructural protein 1,11.3 µM (active)
COc1cccc(OCC(O)CN2CCC(CN3C(=O)c4cccc5cccc(c45)C3=O)CC2)c1 (stereo unspecified),AC50,[17],10.6 µM (active)
same,EC50,[10],2.83 µM (active)
same,EC50,[12],9.64 µM (active)
COC(=O)CNC(=O)C1(C)C=CC2(CCCCC2)N1C(=O)OC (stereo unspecified),AC50,Cytochrome P450 3A4,31.6 µM (inconclusive)
CN1C[C@@H](CO)C=C2c3cccc4[nH]cc(c34)CC21 (stereo partly specified),AC50,Cytochrome P450 3A4,31.6 µM (inconclusive)
C[C@H]1CN([C@@H](C)CO)S(=O)(=O)c2ccc(C#Cc3ccc(F)cc3)cc2O[C@@H]1CN(C)C(=O)NC1CCCC1,AC50,[13],25.6 µM (active)
same,AC50,[14],6.21 µM (active)
Clc1cccc(/C=N\Nc2nccs2)c1,EC50,[1],> 50 µM (active)
same,IC50,cells [23],12.7 µM (active)
OC(CN1CCCC1)Cn1ccc2ccccc21 (stereo unspecified),AC50,[17],16.1 µM (active)
